Structures can show the parent of a compound that is named as a salt. Where two headings read alike, the source gives them in different places.
Molecular target: T1, His6-AspH315–758 (human aspartate/asparagine-β-hydroxylase, AspH) (Homo sapiens, UniProt Q12797)
T1 construct: N-Terminally His6-tagged human AspH315–758 (His6-AspH315–758) was produced in E. coli BL21 (DE3) cells; made in house; host or cells: E. coli BL21 (DE3), pET-28a(+) vector
T1 sequence (Q12797 315-758): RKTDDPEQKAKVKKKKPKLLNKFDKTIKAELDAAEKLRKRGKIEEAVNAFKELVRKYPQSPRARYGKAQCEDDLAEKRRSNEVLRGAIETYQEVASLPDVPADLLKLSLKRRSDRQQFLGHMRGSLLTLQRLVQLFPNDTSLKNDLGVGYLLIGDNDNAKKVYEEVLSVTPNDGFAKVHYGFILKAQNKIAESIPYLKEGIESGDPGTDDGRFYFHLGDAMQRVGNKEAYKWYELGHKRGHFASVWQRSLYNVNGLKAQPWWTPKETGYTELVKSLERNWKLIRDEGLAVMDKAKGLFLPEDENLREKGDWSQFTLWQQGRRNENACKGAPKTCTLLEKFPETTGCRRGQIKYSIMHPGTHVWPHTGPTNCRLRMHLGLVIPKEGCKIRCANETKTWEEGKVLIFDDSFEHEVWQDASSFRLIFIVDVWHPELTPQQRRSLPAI
Assay: SPE-MS AspH inhibition assay (LOPAC screen at fixed 20 μM and IC50 dose-response), hydroxylation of cyclic peptide hFX-CP101–119
Assay type: biochemical
Conditions: for Plate 5 (% inhibition) / Plate 5 (% conversion): plate 5 (Pfitzer), test compounds at fixed 20 μM; for Plate 5 (% conversion): mean conversion DMSO 32.88; for Plate 1 (% inhibition) / Plate 1 (% conversion): LOPAC compound at fixed 20 uM; for Plate 1 (% inhibition): plate 1, normalised to DMSO and 2,4-PDCA controls

[1] = LOPAC Plate 4, compound at 20 uM, substrate conversion
[2] = LOPAC compound at 20uM, plate 3, conversion of substrate peptide
[3] = LOPAC Plate 4, compound at 20 uM
[4] = LOPAC Plate 4, compound at 20 uM, read-out: % inhibition
[5] = read-out: Plate 2 (% inhibition)

C[C@@H]1CCN(C(=O)N2CCCC2)C[C@@H]1N(C)c1ncnc2[nH]ccc12 [PF-956980]
Plate 5 (% inhibition): 16.28%
Plate 5 (% conversion): 30.77%

N#Cc1ccc([C@H]2CCCC[C@H]2O)cc1C(F)(F)F [PF-998425]
Plate 5 (% conversion): 24.94%

CCc1cncnc1N1CCN(Cc2nc3ccc(C(F)(F)F)cc3[nH]2)CC1 [PF-4708671]
% conversion [1]: 41.30%
Plate 5 (% inhibition): 2.08%
Plate 5 (% conversion): 35.61%

Cl.O=C1NCCc2[nH]c(-c3ccncc3)cc21 [PHA 767491 hydrochloride]
Plate 1 (% inhibition): -17.71%
Plate 1 (% conversion) (substrate conversion): 41.82%

O=C1NCCc2[nH]c(-c3ccncc3)cc21 [PHA 767491]
Plate 5 (% inhibition): 26.12%
Plate 5 (% conversion): 27.42%

O=C(N[C@H]1CN2CCC1CC2)c1cc2ccoc2cn1 [PHA-543613]
Plate 3 (% conversion) [2]: 37.15%
Plate 5 (% inhibition): 12.80%
Plate 5 (% conversion): 31.96%

Cc1[nH]c(/C=C2\C(=O)Nc3ccc(S(=O)(=O)Cc4c(Cl)cccc4Cl)cc32)c(C)c1C(=O)N1CCC[C@@H]1CN1CCCC1 [PHA-665752]
Plate 5 (% inhibition): -100.36%
Plate 5 (% conversion): 70.47%

CCC(C)N(C)C(=O)c1cc2ccccc2c(-c2ccccc2Cl)n1 (stereo not drawn) [PK 11195]
Plate 1 (% inhibition): -10.48%
Plate 1 (% conversion) (substrate conversion): 39.39%

Nc1nc2c(ncn2CCOCP(=O)(O)O)c(=O)[nH]1 [PMEG hydrate]
Plate 3 (% conversion) [2]: 30.37%

Cc1nc(N=Nc2ccc(S(=O)(=O)O)cc2S(=O)(=O)O)c(COP(=O)(O)O)c(C=O)c1O [PPADS]
% inhibition [3]: 84.93%
% conversion [1]: 7.48%

O=C(OCCN1CCOCC1)C1(c2ccccc2)CCCCC1 [PRE-084]
Plate 3 (% conversion) [2]: 38.46%

CC(=O)c1cccc(N[C@H]2[C@H](N)[C@@](NC(=O)N(C)C)([C@H](C)O)[C@@](C)(O)[C@@]2(O)COC(=O)c2c(C)cccc2O)c1 [Pactamycin]
Plate 5 (% inhibition): 21.27%
Plate 5 (% conversion): 29.07%

CC(=O)O[C@H]1C[C@@H]2CC[C@@H]3[C@H](CC[C@@]4(C)[C@H]3C[C@H]([N+]3(C)CCCCC3)[C@@H]4OC(C)=O)[C@@]2(C)C[C@@H]1[N+]1(C)CCCCC1 [Pancuronium bromide]
Plate 3 (% conversion): 37.93%

C#CCN(C)Cc1ccccc1 [Pargyline hydrochloride]
% conversion [1]: 31.34%

NC[C@@H]1O[C@H](O[C@H]2[C@@H](O)[C@H](O[C@@H]3[C@@H](O)[C@H](N)C[C@H](N)[C@H]3O[C@H]3O[C@H](CO)[C@@H](O)[C@H](O)[C@H]3N)O[C@@H]2CO)[C@H](N)[C@@H](O)[C@@H]1O [Paromomycin sulfate]
% conversion [1]: 37.25%
inhibition at 20 µM [4]: -2.28%

N=C(N)c1ccc(OCCCCCOc2ccc(C(=N)N)cc2)cc1 [Pentamidine isethionate]
Plate 3 (% conversion) [2]: 37.75%

C[N+]1(CCCCC[N+]2(C)CCCC2)CCCC1.O=C([O-])C(O)C(O)C(=O)O.O=C([O-])C(O)C(O)C(=O)O [Pentolinium di[L(+)-tartrate]]
Plate 3 (% conversion) [2]: 9.60%

CCCN1C[C@H](CSC)C[C@@H]2c3cccc4[nH]cc(c34)C[C@H]21 [Pergolide methanesulfonate]
% conversion [1]: 40.48%
inhibition at 20 µM [4]: -11.8%

OCCN1CCN(CCCN2c3ccccc3Sc3ccc(Cl)cc32)CC1 [Perphenazine]
Plate 3 (% conversion) [2]: 48.99%

NCC(CP(=O)(O)O)c1ccc(Cl)cc1 (stereo not drawn) [Phaclofen]
% conversion: 34.58%
% inhibition (20 µM): 5.54%

NC(=Nc1ccccc1)NC(=O)c1nc(Cl)c(N)nc1N [Phenamil methanesulfonate]
% conversion [1]: 39.99%
inhibition at 20 µM [4]: -10.3%

NNCCc1ccccc1 [Phenelzine sulfate]
inhibition at 20 µM: -1.74%

CN(C)CCC(c1ccccc1)c1ccccn1 (stereo not drawn) [Pheniramine maleate]
% conversion [1]: 37.25%
inhibition at 20 µM [4]: -2.28%

CN1CC[C@@]2(C)c3cc(OC(=O)Nc4ccccc4)ccc3N(C)[C@@H]12 [Phenserine]
Plate 2 (% conversion): 38.49%
inhibition at 20 µM [5]: -7.56%

Cc1ccc(N(CC2=NCCN2)c2cccc(O)c2)cc1 [Phentolamine mesylate]
% conversion [1]: 38.87%
inhibition at 20 µM [4]: -7.04%

CCCCC1C(=O)N(c2ccccc2)N(c2ccccc2)C1=O [Phenylbutazone]
% conversion [1]: 37.63%
inhibition at 20 µM [4]: -3.41%

CNC[C@H](O)c1cccc(O)c1 [Phenylephrine hydrochloride]
Plate 3 (% conversion) [2]: 35.74%

O=C(CCc1ccc(O)cc1)c1c(O)cc(O)cc1O [Phloretin]
% conversion [1]: 29.69%

CCCCCCCCCCCCCC(=O)O[C@@H]1[C@@H](C)[C@@]2(O)[C@@H](C=C(CO)C[C@]3(O)C(=O)C(C)=C[C@@H]23)[C@@H]2C(C)(C)[C@]12OC(C)=O [Phorbol 12-myristate 13-acetate]
% conversion: 39.27%

O=C(O)CP(=O)(O)O [Phosphonoacetic acid]
% conversion [1]: 17.53%
inhibition at 20 µM [4]: 55.5%

CC(C)C[C@H](NP(=O)([O-])O[C@H]1O[C@H](C)[C@@H](O)[C@H](O)[C@@H]1O)C(=O)N[C@@H](Cc1c[nH]c2ccccc12)C(=O)[O-].[Na+].[Na+] [Phosphoramidon disodium]
% conversion: 33.86%

Oc1cc(O)cc(/C=C/c2ccc(O)c(O)c2)c1 [Piceatannol, reference compound]
inhibition at 20 µM (AspH activity, fixed compound concentration 20 μM, initial LOPAC screen, 0.5%v/v DMSO, read-out: Inhibition at 20 µM [%]): 99.9%
Plate 3 (% conversion) [2]: 2.48%

COc1ccc(C(=O)NCc2cccnc2)cc1C(=O)NCc1cccnc1 [Picotamide]
% conversion [1]: 30.17%

NS(=O)(=O)C#Cc1ccccc1 [Pifithrin-mu]
% conversion [1]: 31.04%

CC(N/C(=N\C#N)Nc1ccncc1)C(C)(C)C (stereo not drawn) [Pinacidil]
% conversion [1]: 37.72%

COc1cc(/C=C/C(=O)N2CCC=CC2=O)cc(OC)c1OC [Piperlongumine]
Plate 3 (% conversion): 35.88%

Cc1nc2ccccn2c(=O)c1CCN1CCC(C(=O)c2ccc(F)cc2)CC1 [Pirenperone]
% conversion [1]: 26.88%

CN1CCN(CC(=O)N2c3ccccc3C(=O)Nc3cccnc32)CC1 [Pirenzepine dihydrochloride]
% conversion [1]: 38.08%
inhibition at 20 µM [4]: -4.73%

Cc1ccc(=O)n(-c2ccccc2)c1 [Pirfenidone]
Plate 3 (% conversion) [2]: 40.30%

O=C(O)/C=C\C(=O)O.c1cnc(N2CCN(Cc3ccc4c(c3)OCO4)CC2)nc1 [Piribedil maleate]
% inhibition [3]: -4.83%
% conversion [1]: 38.12%

CN1C(C(=O)Nc2ccccn2)=C(O)c2ccccc2S1(=O)=O [Piroxicam]
Plate 3 (% conversion) [2]: 39.26%

COc1cc([C@@H]2c3cc4c(cc3[C@H](O)[C@H]3COC(=O)[C@H]23)OCO4)cc(OC)c1OC [Podophyllotoxin]
Plate 3 (% conversion): 35.15%

CCCN[C@H]1CCc2nc(N)sc2C1 [Pramipexole dihydrochloride]
% conversion [1]: 39.77%

O=C(C1CCCCC1)N1CC(=O)N2CCc3ccccc3C2C1 (stereo not drawn) [Praziquantel]
Plate 3 (% conversion) [2]: 41.06%

COc1cc2nc(N3CCN(C(=O)c4ccco4)CC3)nc(N)c2cc1OC [Prazosin hydrochloride]
% conversion [1]: 34.08%

CC(=O)[C@H]1CC[C@H]2[C@@H]3CC=C4C[C@@H](OS(=O)(=O)[O-])CC[C@]4(C)[C@H]3CC[C@]12C.[Na+] [Pregnenolone sulfate sodium]
% conversion: 34.01%
% inhibition (20 µM): 7.19%

CCCNC(C)C(=O)Nc1ccccc1C (stereo not drawn) [Prilocaine hydrochloride]
% conversion [1]: 24.92%

CCC1(c2ccccc2)C(=O)NCNC1=O [Primidone]
% conversion [1]: 31.08%

CCN(CC)CCNC(=O)c1ccc(N)cc1 [Procainamide hydrochloride]
% conversion [1]: 38.98%
inhibition at 20 µM [4]: -7.36%

CCN(CC)CCOC(=O)c1ccc(N)cc1 [Procaine hydrochloride]
% conversion [1]: 34.46%
inhibition at 20 µM [4]: 5.88%

CN1CCN(CCCN2c3ccccc3Sc3ccc(Cl)cc32)CC1 [Prochlorperazine dimaleate]
% conversion [1]: 48.18%

CC(=O)[C@H]1CC[C@H]2[C@@H]3CCC4=CC(=O)CC[C@]4(C)[C@H]3CC[C@]12C [Progesterone]
Plate 3 (% conversion) [2]: 43.81%

CCCN(CCC)C(=O)C(CCC(=O)O)NC(=O)c1ccccc1 (stereo not drawn) [Proglumide]
Plate 3 (% conversion) [2]: 27.88%

CN(C)CCCN1c2ccccc2Sc2ccccc21 [Promazine hydrochloride]
% conversion [1]: 39.62%
inhibition at 20 µM [4]: -9.23%

CC(CN1c2ccccc2Sc2ccccc21)N(C)C (stereo not drawn) [Promethazine hydrochloride]
Plate 3 (% conversion) [2]: 42.09%

CC(C)[N+](C)(CCOC(=O)C1c2ccccc2Oc2ccccc21)C(C)C [Propantheline bromide]
% conversion [1]: 33.19%

CCC(=O)c1ccc2c(c1)N(CCCN(C)C)c1ccccc1S2 [Propionylpromazine hydrochloride]
% conversion [1]: 44.67%
inhibition at 20 µM [4]: -24%

CC(C)c1cccc(C(C)C)c1O [Propofol]
Plate 2 (% conversion): 38.08%
inhibition at 20 µM [5]: -6.34%

Source: paper PMC7251097, “Aspartate/asparagine-β-hydroxylase: a high-throughput mass spectrometric assay for discovery of small molecule inhibitors” (Scientific Reports, 2020)
